Measured values: ChEMBL document CHEMBL1151409, “Flavonoids of Desmanthus illinoensis” (1983)
Activity calls are given as the source filed them. The calls are words filed in the database; no cut-off is given here.

How the values were obtained:
Heliothis virescens = experiment: Growth inhibition of tobacco budworm larvae assessed as percent of diet; format: functional
[1] = tested on: Lysinibacillus sphaericus; experiment: Antibacterial activity against Bacillus sphaericus by test disc paper method; format: functional, organism-based
Bacillus thuringiensis = experiment: Antibacterial activity against Bacillus thuringiensis at 100 ug by test disc paper method; format: functional; conditions: read-out: IZ
[2] = tested on: Stenotrophomonas maltophilia; experiment: Antibacterial activity against Pseudomonas maltophilia at 100 ug by test disc paper method; format: functional; conditions: read-out: IZ
Bacillus subtilis = experiment: Antibacterial activity against Bacillus subtilis at 100 ug by test disc paper method; format: functional; conditions: read-out: IZ
Solanum lycopersicum = experiment: Growth regulatory activity on tomato root; format: functional, organism-based

| Compound | ED50 (Heliothis virescens) [%] | Activity [1] | zone of inhibition at 100 µg/disc (Bacillus thuringiensis) [mm] | zone of inhibition at 100 µg/disc [2] [mm] | zone of inhibition at 100 µg/disc (Bacillus subtilis) [mm] | Activity (Solanum lycopersicum) |
| --- | --- | --- | --- | --- | --- | --- |
| C[C@H]1O[C@@H](Oc2c(-c3cc(O)c(O)c(O)c3)oc3cc(O)cc(O)c3c2=O)[C@@H](OC(=O)c2cc(O)c(O)c(O)c2)[C@@H](O)[C@@H]1O | 0.09 | Active | 10 | 10 | 10 |  |
| C[C@H]1O[C@@H](Oc2c(-c3cc(O)c(O)c(O)c3)oc3cc(O)cc(O)c3c2=O)[C@@H](O)[C@@H](O)[C@@H]1O [MYRICITRIN] | 0.11 |  |  |  |  |  |
| C[C@H]1O[C@@H](Oc2c(-c3cc(O)c(O)c(O)c3)oc3cc(O)cc(O)c3c2=O)[C@@H](O)[C@@H](O)[C@@H]1OC(=O)c1cc(O)c(O)c(O)c1 | 0.04 |  |  |  |  | inactive |
| O=C(O)c1cc(O)c(O)c(O)c1 [GALLIC ACID] | 18.5 | Active |  |  | 10 |  |
| O=c1c(O)c(-c2ccc(O)c(O)c2)oc2cc(O)cc(O)c12 [QUERCETIN] | 0.05 |  |  | 10 |  |  |
